In assay [1] the target is T1, N-terminal His6-tagged recombinant human KDR, residues 790-end (Homo sapiens, UniProt P35968).
T1 construct: recombinant human KDR, residues 790-end; His6 (N); purchased Upstate USA Inc, 706 Forest Street, Charlottesville, Va
Briefly: KDR kinase inhibition assay (33P-ATP filter assay). In kind it is biochemical. The procedure, abridged:
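Radiometric filter assay: reaction started with Mg acetate (10 mM)/[γ-33P]ATP mix, run 40 min at room temperature in 8 mM MOPS pH 7.0 with 0.2 mM EDTA, MBP substrate (0.33 mg/mL) and recombinant KDR 790-end (5-10 mU). Phosphate incorporation by scintillation counting of P30 filtermats, compared with uninhibited reactions.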

In the next assay the test system is HCT116 cells. Briefly: Whole cell cytotoxicity assay, Sulforhodamine B. The note with it: Homo sapiens, HCT-116, HCT116, 96 hours incubation, SRB; for GI50: read-out: GI50 HCT116 cell growth; for IC50: read-out: IC50 values in this assay (HCT116 cell growth). In kind it is cell-based. The procedure, abridged:
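HCT116 cells (500/well) in DMEM/10% FBS/2 mM glutamine were preincubated 24 h, then exposed to compound for 96 h at 37 °C, 5% CO2, in duplicate. Cells were fixed with TCA and stained with sulforhodamine B (A570). GI50, TGI and LC50 were derived relative to a time-zero plate and an untreated control.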

In the next assay the target is T2, recombinant Aurora A (Homo sapiens, UniProt O14965).
T2 construct: purchased Upstate, Lake Placid, N.Y
T2 sequence (O14965 1-403): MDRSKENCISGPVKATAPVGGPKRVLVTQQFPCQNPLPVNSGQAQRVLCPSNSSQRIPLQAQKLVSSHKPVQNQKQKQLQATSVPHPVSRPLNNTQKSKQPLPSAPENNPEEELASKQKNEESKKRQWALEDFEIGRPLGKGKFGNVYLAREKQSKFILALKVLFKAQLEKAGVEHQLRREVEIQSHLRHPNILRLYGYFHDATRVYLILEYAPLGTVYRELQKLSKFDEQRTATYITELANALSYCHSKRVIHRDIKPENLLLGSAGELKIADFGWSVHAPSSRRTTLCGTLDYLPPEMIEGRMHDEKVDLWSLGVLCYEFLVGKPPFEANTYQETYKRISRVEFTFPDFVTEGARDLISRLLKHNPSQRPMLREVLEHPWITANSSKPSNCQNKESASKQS
Briefly: Aurora A (Aurora 2) inhibition assay, Z'-Lyte kinase assay. In kind it is biochemical. The conditions noted are these: ATP 10 μM, 1 h. The procedure, abridged:
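Z'-Lyte FRET assay: Aurora A (200-500 ng/mL final), Ser/Thr 1 peptide (2 μM) and ATP (10 μM) in 50 mM HEPES pH 7.5, 10 mM MgCl2, 5 mM EGTA, 0.05% Brij-35, 2 mM DTT, 1 h at room temperature. Coumarin/fluorescein emission ratio converted to percent phosphorylation; dose-response curves plotted.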

Where [2] appears, read: group with IC50 greater than 100 nM.

The values that follow come from patent US20090029992A1, “SUBSTITUTED PYRAZOLE COMPOUNDS” (priority 2007, published 2009).

What is called IC50 is the concentration that gives 50% inhibition. Broadly, the GI50 is the concentration giving 50% growth inhibition.

T1 sequence (P35968 790-1356 limits assumed): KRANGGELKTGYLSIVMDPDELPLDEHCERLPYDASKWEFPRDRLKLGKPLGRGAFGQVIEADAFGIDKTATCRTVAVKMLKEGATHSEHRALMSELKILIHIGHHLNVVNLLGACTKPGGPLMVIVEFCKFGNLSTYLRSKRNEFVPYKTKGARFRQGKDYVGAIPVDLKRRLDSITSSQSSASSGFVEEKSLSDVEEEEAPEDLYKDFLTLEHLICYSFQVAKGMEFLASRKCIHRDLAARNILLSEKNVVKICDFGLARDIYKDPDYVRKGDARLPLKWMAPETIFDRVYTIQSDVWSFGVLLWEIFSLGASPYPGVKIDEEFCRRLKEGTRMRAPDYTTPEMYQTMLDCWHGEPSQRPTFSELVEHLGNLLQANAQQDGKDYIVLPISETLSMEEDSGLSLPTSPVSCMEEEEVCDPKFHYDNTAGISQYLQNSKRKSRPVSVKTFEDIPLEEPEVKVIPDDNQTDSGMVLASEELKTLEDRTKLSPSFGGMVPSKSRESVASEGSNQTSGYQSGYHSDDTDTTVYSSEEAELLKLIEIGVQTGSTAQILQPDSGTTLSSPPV

Turning to `Cc1cc(Nc2cc(NC3CCOCC3)nc(-c3cccc(N(C)C)c3)n2)n[nH]1` [Compound 74, 2-(3-(dimethylamino)phenyl)-N^4-(5-methyl-1H-pyrazol-3-yl)-N^6-(tetrahydro-2H-pyran-4-yl)pyrimidine-4,6-diamine], the IC50 (in assay [1] (40 minutes at room temperature); at recombinant Aurora A) was at most 0.1 µM each time. The GI50 in the assay with HCT116 cells is at most 1 µM.

On to `Cc1cc(Nc2cc(NCCN3CCN(C)CC3)nc(-c3ccccc3)n2)n[nH]1` [Compound 13, N^4-(5-methyl-1H-pyrazol-3-yl)-N^6-(2-(4-methylpiperazin-1-yl)ethyl)-2-phenylpyrimidine-4,6-diamine], for which the values for the IC50 (in assay [1] (40 minutes at room temperature); on recombinant Aurora A (setting [2])) were at most 0.1 µM and at most 1 µM, respectively. Further, in the assay on HCT116 cells, the GI50 was at most 1 µM.

Turning to `Cc1cc(Nc2cc(N3CCN(C)CC3)nc(-c3ccc(N(C)C)cc3)n2)n[nH]1` [Compound 85, 2-(4-(dimethylamino)prenyl)-N-(b-methyl-1H-pyrazol-3-yl)-6-(4-methylpiperazin-1-yl)pyrimidin-4-amine], the IC50 (in assay [1] (40 minutes at room temperature); on recombinant Aurora A) was at most 0.1 µM throughout. The GI50 in the assay with HCT116 cells was at most 1 µM.

Take `Cc1cc(Nc2cc(N3CCN(C)CC3)nc(-c3ccccc3Cl)n2)n[nH]1` [Compound 37, 2-(2-chlorophenyl)-N-(5-methyl-1H-pyrazol-3-yl)-6-(4-methylpiperazin-1-yl)pyrimidin-4-amine]: the IC50 is at most 0.1 µM in assay [1] (40 minutes at room temperature), 1 to 10 µM in the assay with HCT116 cells and at most 1 µM at recombinant Aurora A (setting [2]).

In the case of `Cc1cc(Nc2cc(N(C)CCN(C)C)nc(-c3cccc(Cl)c3)n2)n[nH]1` [Compound 49, 2-(3-chlorophenyl)-N^4-(2-(dimethylamino)ethyl)-N^4-methyl-N^6-(5-methyl-1H-pyrazol-3-yl)pyrimidine-4,6-diamine], the IC50 was at most 0.1 µM in assay [1] (40 minutes at room temperature) and at most 1 µM on recombinant Aurora A (setting [2]). The GI50 in the assay on HCT116 cells is at most 1 µM.

Take `Cc1cc(Nc2cc(NC3CCOCC3)nc(-c3cc4cc(NS(=O)(=O)C5CC5)ccc4o3)n2)n[nH]1` [Example 156, N-(2-(4-(5-methyl-1H-pyrazol-3-ylamino)-6-(tetrahydro-2H-pyran-4-ylamino)pyrimidin-2-yl)benzofuran-5-yl)cyclopropanesulfonamide]: the IC50 in assay [1] (setting [2]) is at most 1 µM; in the assay with HCT116 cells, 1 to 10 µM; at recombinant Aurora A, at most 0.1 µM.

`Cc1cc(Nc2cc(N3CCN(C)CC3)nc(-c3ccc(Cl)cc3)n2)n[nH]1` [Compound 35, 2-(4-chlorophenyl)-N-(5-methyl-1H-pyrazol-3-yl)-6-(4-methylpiperazin-1-yl)pyrimidin-4-amine]: the IC50 in assay [1] (40 minutes at room temperature) was at most 0.1 µM; with HCT116 cells, 1 to 10 µM; on recombinant Aurora A, at most 0.1 µM.

Turning to `Cc1cc(Nc2cc(NC3CCOCC3)nc(-c3ccc4c(c3)OCCO4)n2)n[nH]1` [Example 130, 2-(2,3-dihydrobenzo[b][1,4]dioxin-6-yl)-N^4-(5-methyl-1H-pyrazol-3-yl)-N^6-(tetrahydro-2H-pyran-4-yl)pyrimidine-4,6-diamine], the IC50 in assay [1] (setting [2]) is at most 1 µM; in the assay with HCT116 cells, 1 to 10 µM; on recombinant Aurora A, at most 0.1 µM.

`Cc1cc(Nc2cc(N3CCN(C)CC3)nc(-c3ccc(C#N)cc3)n2)n[nH]1` [Example 160, 4-(4-(5-methyl-1H-pyrazol-3-ylamino)-6-(4-methylpiperazin-1-yl)pyrimidin-2-yl)benzonitrile]: the IC50 (in assay [1] (setting [2]); at recombinant Aurora A (setting [2])) was at most 1 µM throughout. The GI50 with HCT116 cells is at most 1 µM.

Consider `Cc1cc(Nc2cc(N(C)CCN(C)C)nc(-c3cccc4ccoc34)n2)n[nH]1` [Example 205, 2-(benzofuran-7-yl)-N^4-(2-(dimethylamino)ethyl)-N^4-methyl-N^6-(5-methyl-1H-pyrazol-3-yl)pyrimidine-4,6-diamine], for which the IC50 was at most 1 µM in assay [1] (setting [2]), 1 to 10 µM in the assay with HCT116 cells and at most 1 µM on recombinant Aurora A (setting [2]).

For the molecule `Cc1cc(Nc2cc(N3CCN(C)CC3)nc(-c3cccc([N+](=O)[O-])c3)n2)n[nH]1` [Example 162, N-(5-methyl-1H-pyrazol-3-yl)-6-(4-methylpiperazin-1-yl)-2-(3-nitrophenyl)pyrimidin-4-amine], the IC50 (in assay [1] (40 minutes at room temperature); on recombinant Aurora A) was at most 0.1 µM throughout. Moreover, in the assay on HCT116 cells, the GI50 was at most 1 µM.

With `Cc1cc(Nc2cc(N3CCN(C)CC3)nc(-c3cccc(C)c3C)n2)n[nH]1` [Example 179, 2-(2,3-dimethylphenyl)-N-(5-methyl-1H-pyrazol-3-yl)-6-(4-methylpiperazin-1-yl)pyrimidin-4-amine], the IC50 in assay [1] (40 minutes at room temperature) is at most 0.1 µM; on recombinant Aurora A (setting [2]), at most 1 µM. The GI50 in the assay on HCT116 cells is at most 1 µM.

For `Cc1ccc(C)c(-c2nc(Nc3cc(C)[nH]n3)cc(N3CCN(C)CC3)n2)c1` [Example 201, 2-(2,5-dimethylphenyl)-N-(5-methyl-1H-pyrazol-3-yl)-6-(4-methylpiperazin-1-yl)pyrimidin-4-amine], the IC50 was at most 1 µM in assay [1] (setting [2]), 1 to 10 µM with HCT116 cells and at most 1 µM at recombinant Aurora A (setting [2]).

With `Cc1cc(Nc2cc(N(C)CCN(C)C)nc(-c3cc4ccccc4n3C)n2)n[nH]1` [Compound 4, N^4-(2-(dimethylamino)ethyl)-N^4-methyl-2-(1-methyl-1H-indol-2-yl)-N^6-(5-methyl-1H-pyrazol-3-yl)pyrimidine-4,6-diamine], the IC50 (in assay [1] (setting [2]); at recombinant Aurora A (setting [2])) was at most 1 µM in each case. The GI50 in the assay on HCT116 cells was at most 1 µM.

Turning to `COCCN(C)c1cc(Nc2cc(C)[nH]n2)nc(-c2ccccc2)n1` [Example 171, N^4-(2-methoxyethyl)-N^4-methyl-N^6-(5-methyl-1H-pyrazol-3-yl)-2-phenyl pyrimidine-4,6-diamine], the IC50 in assay [1] (40 minutes at room temperature) was at most 0.1 µM; in the assay on HCT116 cells, 1 to 10 µM; at recombinant Aurora A, at most 0.1 µM.

Consider `COc1ccc(-c2nc(Nc3cc(C)[nH]n3)cc(N(C)CCN(C)C)n2)cc1` [Compound 54, N^4-(2-(dimethylamino)ethyl)-2-(4-methoxyphenyl)-N^4-methyl-N^6-(5-methyl-1H-pyrazol-3-yl)pyrimidine-4,6-diamine], for which the IC50 (in assay [1] (setting [2]); at recombinant Aurora A (setting [2])) was at most 1 µM throughout. The GI50 in the assay on HCT116 cells is at most 1 µM.

For `COCCN(C)c1cc(Nc2cc(C)[nH]n2)nc(-c2cccc(Cl)c2)n1` [Compound 62, 2-(3-chlorophenyl)-N^4-(2-methoxyethyl)-N^4-methyl-N^6-(5-methyl-1H-pyrazol-3-yl)pyrimidine-4,6-diamine], the IC50 was at most 1 µM in assay [1] (setting [2]), 1 to 10 µM in the assay on HCT116 cells and at most 1 µM on recombinant Aurora A (setting [2]).

For the molecule `Cc1cc(Nc2cc(N3CCN(C)CC3)nc(-c3ccc4c(c3)OC(F)(F)O4)n2)n[nH]1` [Example 178, 2-(2,2-difluorobezo[d][1,3]dioxol-5-yl)-N-(5-methyl-1H-pyrazol-3-yl)-6-(4-methylpiperazin-1-yl)pyrimidin-4-amine], the IC50 (in assay [1] (setting [2]); on recombinant Aurora A (setting [2])) was at most 1 µM throughout. The GI50 with HCT116 cells was at most 1 µM.

With `CC(=O)c1cccc(-c2nc(Nc3cc(C)[nH]n3)cc(N3CCN(C)CC3)n2)c1` [Example 165, 1-(3-(4-(5-methyl-1H-pyrazol-3-ylamino)-6-(4-methylpiperazin-1-yl)pyrimidin-2-yl)phenyl)ethanone], the IC50 (in assay [1] (40 minutes at room temperature); on recombinant Aurora A) was at most 0.1 µM in each case. The GI50 in the assay on HCT116 cells was at most 1 µM.

Consider `Cc1cc(Nc2cc(NC3CCOCC3)nc(-c3ccc4c(c3)OCO4)n2)n[nH]1` [Example 132, 2-(benzo[d][1,3]dioxol-5-yl)-N^4-(5-methyl-1H-pyrazol-3-yl)-N^6-(tetrahydro-2H-pyran-4-yl)pyrimidine-4,6-diamine], for which the IC50 in assay [1] (40 minutes at room temperature) was at most 0.1 µM; with HCT116 cells, 1 to 10 µM; on recombinant Aurora A it was at most 0.1 µM.

Regarding `Cc1cc(Nc2cc(N3CCN(C)CC3)nc(-c3cccc(C(F)(F)F)c3)n2)n[nH]1` [Compound 101, N-(5-methyl-1H-pyrazol-3-yl)-6-(4-methylpiperazin-1-yl)-2-(3-(trifluoromethyl)phenyl)pyrimidin-4-amine], the IC50 in assay [1] (setting [2]) is at most 1 µM; in the assay on HCT116 cells, 1 to 10 µM; on recombinant Aurora A it was at most 0.1 µM.

Regarding `Cc1ccc(F)c(-c2nc(Nc3cc(C)[nH]n3)cc(N3CCN(C)CC3)n2)c1` [Example 193, 2-(2-fluoro-5-methylphenyl)-N-(5-methyl-1H-pyrazol-3-yl)-6-(4-methylpiperazin-1-yl)pyrimidin-4-amine], the half-inhibitory concentration (IC50) was at most 0.1 µM in assay [1] (40 minutes at room temperature), 1 to 10 µM with HCT116 cells and at most 0.1 µM on recombinant Aurora A.
